Here are results for one compound from patent US20080107625A1, “Inhibitors of Hepatitis C Virus” (Bristol-Myers Squibb Company, priority 2006, published 2008).

Type in all cases: biochemical
The target in assay [1] is T1, porcine pancreatic elastase (PPE) (Sus scrofa, UniProt P00772).
T1 construct: purchased Sigma or EMDbiosciences
Description: Specificity assay, pancreatic elastase. The method, then:
(§1) The specificities of compounds of the present disclosure were determined against a variety of serine proteases: human neutrophil elastase (HNE), porcine pancreatic elastase (PPE) and human pancreatic chymotrypsin and one cysteine protease: human liver cathepsin B. In all cases, a 96-well plate format protocol using colorimetric p-nitroaniline (pNA) substrate or fluorometric Amino-Methyl-Coumarin (AMC) substrate, specific for each enzyme was used as described previously (PCT Patent Application No. WO 00/09543) with some modifications. All enzymes were purchased from Sigma or EMDbiosciences while the substrates were from Bachem.
(§2) Each pNA assay included a 2 h enzyme-inhibitor pre-incubation at room temperature followed by addition of substrate and hydrolysis to ˜15% conversion as measured on a Spectramax Pro microplate reader. The cathepsin B assay was initiated by adding substrate to a 10 min enzyme-inhibitor pre-incubation at room temperature, and the assay plate measured immediately using the Cytofluor Series 4000. Compound concentrations varied from 100 to 0.4 μM depending on their potency.
(§3) 50 mM Tris(hydroxymethyl)aminomethane hydrochloride (Tris-HCl) pH 8, 0.5 M Sodium Sulfate (Na2SO4), 50 mM NaCl, 0.1 mM EDTA, 3% DMSO, 0.01% Tween-20 with: […]
(§4) The percentage of inhibition was calculated using the formula: [1−((UVinh−UVblank)/(UVctl−UVblank))]×100 […]

Assay [2] addresses T2, human neutrophil elastase (HNE) (Homo sapiens, UniProt P08246).
T2 construct: purchased Sigma or EMDbiosciences
T2 sequence (P08246 30-267): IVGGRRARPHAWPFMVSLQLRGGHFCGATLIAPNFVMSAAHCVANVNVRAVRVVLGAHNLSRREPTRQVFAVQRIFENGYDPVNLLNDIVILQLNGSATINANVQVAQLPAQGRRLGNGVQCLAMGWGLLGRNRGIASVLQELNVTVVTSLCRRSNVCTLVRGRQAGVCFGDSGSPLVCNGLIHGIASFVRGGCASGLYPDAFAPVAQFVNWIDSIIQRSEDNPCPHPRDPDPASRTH
As to the kind of experiment: Specificity assay, neutrophil elastase. As to conditions: read-out: HLE activity in the specificity assay (IC50). As for the experimental part:
as §1, §2, §3, §4

The target of assay [3] is HCV NS3/4A protease complex, BMS strain (Hepatitis C virus genotype 1a, UniProt P27958, C1454S/C1711G). As to the kind of experiment: FRET peptide assay to monitor HCV NS3/4A proteolytic activity (BMS strain). The note with it: read-out: IC50 against the NS3/4A BMS strain in the enzyme assay. An excerpt: HCV NS3 protease complexes, derived from the BMS strain, H77 strain or J4L6S strain, were generated, as described below. These purified recombinant proteins were generated for use in a homogeneous assay (see below) to provide an indication of how effective compounds of the present disclosure would be in inhibiting HCV NS3 proteolytic activity.
Serum from an HCV-infected patient was obtained from Dr. T. Wright, San Francisco Hospital. […]
In order to monitor HCV NS3/4A protease activity, an NS3/4A peptide substrate was used. […] The peptide also contains a fluorescence donor, EDANS, near one end of the peptide and an acceptor, DABCYL, near the other end. The fluorescence of the peptide is quenched by […] resonance energy transfer (RET) between the donor and the acceptor, but as the NS3 protease cleaves the peptide the products are released from RET quenching and the fluorescence of the donor becomes apparent.
The peptide substrate was incubated with one of the three recombinant NS3/4A protease complexes, in the absence or presence of a compound of the present disclosure. The inhibitory effects of a compound was determined by monitoring the formation of fluorescent reaction product in real time using a Cytofluor Series 4000. […]

The target of assay [4] is T3, human pancreatic chymotrypsin (Homo sapiens, UniProt P17538).
T3 construct: purchased Sigma or EMDbiosciences
As to the kind of experiment: Specificity assay, chymotrypsin. As for the experimental part:
as §1, §2, §3, §4

HCV NS3/4A protease complex, BMS strain, sequence (P27958 1027-1711 C1454S/C1711G, one chain of several): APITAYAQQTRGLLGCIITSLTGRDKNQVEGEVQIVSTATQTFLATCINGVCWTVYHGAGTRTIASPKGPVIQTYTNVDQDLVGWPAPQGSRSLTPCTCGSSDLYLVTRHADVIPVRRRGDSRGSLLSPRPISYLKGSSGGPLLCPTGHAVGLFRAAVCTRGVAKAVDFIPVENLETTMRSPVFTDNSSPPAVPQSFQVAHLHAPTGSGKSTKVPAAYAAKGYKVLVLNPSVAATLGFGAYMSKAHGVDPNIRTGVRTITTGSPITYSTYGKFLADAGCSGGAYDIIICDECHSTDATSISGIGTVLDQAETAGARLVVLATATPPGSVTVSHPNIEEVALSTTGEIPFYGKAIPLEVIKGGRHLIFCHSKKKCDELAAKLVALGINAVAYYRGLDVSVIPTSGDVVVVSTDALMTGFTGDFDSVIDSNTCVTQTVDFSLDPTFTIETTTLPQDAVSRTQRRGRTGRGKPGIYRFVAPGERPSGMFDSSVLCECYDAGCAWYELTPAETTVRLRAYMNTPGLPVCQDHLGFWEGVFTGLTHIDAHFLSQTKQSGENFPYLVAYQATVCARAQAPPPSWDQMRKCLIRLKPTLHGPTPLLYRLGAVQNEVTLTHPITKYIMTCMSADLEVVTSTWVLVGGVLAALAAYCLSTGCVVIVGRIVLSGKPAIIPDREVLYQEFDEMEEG
T1 sequence (P00772 27-266): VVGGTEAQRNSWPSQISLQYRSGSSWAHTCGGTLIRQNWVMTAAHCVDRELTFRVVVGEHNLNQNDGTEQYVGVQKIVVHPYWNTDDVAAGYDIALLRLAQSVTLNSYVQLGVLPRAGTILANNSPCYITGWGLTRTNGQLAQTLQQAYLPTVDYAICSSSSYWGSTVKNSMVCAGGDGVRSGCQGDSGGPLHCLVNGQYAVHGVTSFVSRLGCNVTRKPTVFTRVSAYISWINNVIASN
T3 sequence (P17538 19-263): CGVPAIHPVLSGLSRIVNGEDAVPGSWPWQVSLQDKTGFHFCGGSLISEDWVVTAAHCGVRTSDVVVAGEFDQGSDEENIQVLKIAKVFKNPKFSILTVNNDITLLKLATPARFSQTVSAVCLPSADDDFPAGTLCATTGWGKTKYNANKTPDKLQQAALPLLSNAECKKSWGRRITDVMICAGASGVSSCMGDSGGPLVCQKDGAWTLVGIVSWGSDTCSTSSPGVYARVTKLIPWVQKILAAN

In the case of `CC(C)(C)OC(=O)N[C@H]1CN(C2CC2)CCC/C=C\C2C[C@@]2(C(=O)NS(=O)(=O)C2CC2)NC(=O)[C@@H]2C[C@@H](Oc3ccccn3)CN2C1=O` (stereo partly shown) [Compound 1], the IC50 is above 100 µM in assay [1], above 100 µM in assay [2], 0.098 µM in assay [3] and above 100 µM in assay [4].
